Experimental data from patent publication US20150284381A1, “AMINO-PYRIDINE-CONTAINING SPLEEN TYROSINE KINASE (SYK) INHIBITORS” (MERCK SHARP & DOHME CORP., priority 2012, published 2015).

Legend:
[1] = test system: PGD2; details: dosed intranasally, phase I/II study, allergic rhinitis; cited from earlier work
[2] = phase II clinical trial, allergic rhinitis; cited from earlier work
[3] = target: T1, recombinant human GST-Syk (Homo sapiens, UniProt P43405); test: Homogeneous Time-Resolved Fluorescence (HTRF) assay for the recombinant human Syk enzyme; format: biochemical; details: recombinant human GST-Syk 5 pM, ATP 25 μM, 45 min at rt, read-out: rhSyk
T1 construct: purchased Carna Biosciences 08-176
Procedure: Homogeneous Time-Resolved Fluorescence (HTRF) Assay for the Recombinant Human Syk Enzyme
A recombinant GST-hSyk fusion protein was used to measure potency of compounds to inhibit human Syk activity. The recombinant human GST-Syk (Carna Biosciences #08-176) (5 pM nominal concentration) was incubated with various concentrations of the inhibitor diluted in DMSO (0.1% final concentration) for 10 minutes at rt in 15 mM Tris-HCl (pH 7.5), 0.01% tween 20, 2 mM DTT in 384 well plate format. To initiate the reaction the biotinylated substrate peptide (250 nM final concentration) that contains the phosphorylation site for Syk was added with magnesium (5 mM final concentration) and ATP (25 μM final concentration). Final volume of the reaction was 10 μL. Phosphorylation of the peptide was allowed to proceed for 45′ at rt. To quench the reaction and detect the phosphorylated product, 2 nM of a Europium-anti-phosphotyrosine antibody (Perkin Elmer #AD0161) and 70 nM SA-APC (Perkin-Elmer #CR130-100) were added together in 15 mM Tris pH 7.5, 40 mM EDTA, 0.01% tween 20. Final volume of the quenching solution was 10 μL. The resulting HTRF signal was measured after 30 minutes on a EnVision (Perkin-Elmer) reader using a time-resolved fluorescence protocol. IC50 was determined following 10-dose titration (10 μM to 0.508 nM) and four parameter logistic curve fitting using an assay data analyzer.

SMILES	IC50 [3] [nM]	also measured
Oc1cccc(Nc2ncc(F)c(Nc3cccc(O)c3)n2)c1 [Example R112]	–	PGD2 [1]: statistically significant decrease; clinical safety [1]: safe across a range of indicators; efficacy versus placebo [2]: lack of efficacy versus placebo
COC(=O)c1ccc2c(c1)CCCC2(O)c1ncc(-c2cc(C)cc(Nc3cc(-c4cn[nH]c4)ccn3)n2)s1 (stereo not drawn) [Example 4A, Methyl 5-(5-(6-((4-(1H-pyrazol-4-yl)pyridin-2-yl)amino)-4-methylpyridin-2-yl)thiazol-2-yl)-5-hydroxy-5,6,7,8-tetrahydronaphthalene-2-carboxylate]	2.38	–
Cc1cc(Nc2cc(C(F)(F)F)ccn2)nc(-c2cnc([C@@]3(O)CCCc4c3ccc(C(=O)O)c4O)s2)c1 (single isomer, unassigned) [Example 7A, 1,5-Dihydroxy-5-[5-(4-methyl-6-{[4-(trifluoromethyl)pyridin-2-yl]amino}pyridin-2-yl)-1,3-thiazol-2-yl]-5,6,7,8-tetrahydronaphthalene-2-carboxylic acid]	4.61	–
Cc1cc(Nc2cc(C(F)(F)F)ccn2)nc(-c2cnc(C3(O)CCCc4cc(C(=O)O)c(Br)cc43)s2)c1 (single isomer, unassigned) [Example 1A, 3-Bromo-5-hydroxy-5-[5-(4-methyl-6-{[4-(trifluoromethyl)pyridin-2-yl]amino}pyridin-2-yl)-1,3-thiazol-2-yl]-5,6,7,8-tetrahydronaphthalene-2-carboxylic acid]	1.51	–
Cc1cc(Nc2cc(C(C)F)ccn2)nc(-c2cnc([C@@]3(O)CCc4cc(C(=O)O)ccc43)s2)c1 (single isomer, unassigned) [Example 2J, (1R)-1-[5-(6-{[4-((R or S)-1-fluoroethyl)pyridin-2-yl]amino}-4-methylpyridin-2-yl)-1,3-thiazol-2-yl]-1-hydroxy-2,3-dihydro-1H-indene-5-carboxylic acid]	0.04	–
Cc1cc(Nc2cc(C(F)(F)F)ccn2)nc(-c2cnc([C@@]3(O)CCCc4c3ccc(C(=O)O)c4O)s2)c1 (single isomer, unassigned) [Example 7B, 1,5-Dihydroxy-5-[5-(4-methyl-6-{[4-(trifluoromethyl)pyridin-2-yl]amino}pyridin-2-yl)-1,3-thiazol-2-yl]-5,6,7,8-tetrahydronaphthalene-2-carboxylic acid]	0.24	–
Cc1cc(Nc2cc(C(F)(F)F)ccn2)nc(-c2cnc(C3(O)CCCc4cc(C(=O)O)c(Cl)cc43)s2)c1 (single isomer, unassigned) [Example 1F, (R or S)-3-chloro-5-hydroxy-5-[5-(4-methyl-6-{[4-(trifluoromethyl)pyridin-2-yl]amino}pyridin-2-yl)-1,3-thiazol-2-yl]-5,6,7,8-tetrahydronaphthalene-2-carboxylic acid]	0.17	–
